The source made the active and inactive calls. The calls are words filed in the database; no cut-off is given here.

For assay [1], the system named is K562. The assay can be described thus: Cytotoxicity against human K562 cells after 5 days by XTT assay. The format is functional, cell-based. As to conditions: K562, 120 h. (Tetrazolium dyes change colour on reduction, which living cells bring about.)
Assay [2] concerns the target T1, DNA topoisomerase 1 (Homo sapiens) (UniProt P11387).
T1 sequence (whole entry): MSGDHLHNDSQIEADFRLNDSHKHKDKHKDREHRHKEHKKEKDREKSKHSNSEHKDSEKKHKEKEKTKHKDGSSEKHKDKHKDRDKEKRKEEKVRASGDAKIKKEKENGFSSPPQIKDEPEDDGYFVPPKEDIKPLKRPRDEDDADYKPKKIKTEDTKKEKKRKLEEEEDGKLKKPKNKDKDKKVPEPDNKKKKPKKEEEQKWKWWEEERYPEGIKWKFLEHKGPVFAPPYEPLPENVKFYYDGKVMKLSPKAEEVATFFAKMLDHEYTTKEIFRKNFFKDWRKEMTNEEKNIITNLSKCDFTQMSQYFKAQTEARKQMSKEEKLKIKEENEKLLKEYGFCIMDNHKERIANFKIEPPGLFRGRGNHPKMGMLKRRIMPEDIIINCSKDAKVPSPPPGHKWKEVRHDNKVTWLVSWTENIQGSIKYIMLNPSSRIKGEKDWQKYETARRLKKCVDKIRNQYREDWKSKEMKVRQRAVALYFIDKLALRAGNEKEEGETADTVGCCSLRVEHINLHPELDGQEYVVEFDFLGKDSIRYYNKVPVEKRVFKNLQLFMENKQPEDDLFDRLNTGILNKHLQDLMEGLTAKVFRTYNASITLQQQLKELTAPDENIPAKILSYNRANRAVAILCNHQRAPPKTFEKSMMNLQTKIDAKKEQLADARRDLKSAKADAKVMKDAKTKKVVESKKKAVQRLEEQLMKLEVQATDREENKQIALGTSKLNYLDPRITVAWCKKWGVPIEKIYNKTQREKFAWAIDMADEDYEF
As to the kind of experiment: Binding affinity to topoisomerase 1 in human K562 cells assessed as stability of topoisomerase 1-DNA complex at 70 uM after 48 hrs by TARDIS assay. The format is cell-based.

Assay [3] concerns K562. The assay can be described thus: Binding affinity to topoisomerase 2 in human K562 cells assessed as stability of topoisomerase 2-DNA complex at 70 uM after 48 hrs by TARDIS assay. It counts as cell-based.
Assay [4] concerns the target T1, DNA topoisomerase 1 (Homo sapiens). As to the kind of experiment: Reversal of drug-induced topoisomerase 1-DNA complex in presence of N-acetyl cysteine at 70 uM after 24 hrs.
Assay [5] is described as follows: Reversal of drug-induced topoisomerase 2-DNA complex in presence of N-acetyl cysteine at 70 uM after 24 hrs.
For assay [6], the system named is K562. As to the kind of experiment: Binding affinity to topoisomerase 2 in human K562 cells assessed as increase in etoposide-induced topoisomerase 2-DNA complex at 20-70 uM after 24 hrs by TARDIS assay. It counts as cell-based.
The subject of assay [7] is K562. As to the kind of experiment: Binding affinity to topoisomerase 2 in human K562 cells assessed as increase in […]-induced topoisomerase 2-DNA complex at 20-70 uM after 24 hrs by TARDIS assay. It counts as cell-based.

Usually IC50 stands for the point on the concentration scale where inhibition reaches its midpoint. Low readings indicate greater potency in that assay, high ones weaker potency in that assay. As for `O=C1c2c(O)ccc(O)c2C(=O)c2c(NCCNCCO)ccc(NCCNCCO)c21` [MITOXANTRONE], the IC50 in the assay with K562 [1] was found to be 0.0026 µM.
Still for that read-out and setting: as for `COc1cc(NS(C)(=O)=O)ccc1Nc1c2ccccc2nc2ccccc12` [AMSACRINE], the figure is 0.023 µM.
On the same count and under the same terms, in the case of `O=C(CC(=O)c1ccccc1)c1ccccc1` [DIBENZOYLMETHANE] it was 30.9 µM; in that of `COc1cc(/C=C/C(=O)O)ccc1O` [FERULATE], above 1000 µM; in that of `CC(=O)[C@]1(O)Cc2c(O)c3c(c(O)c2[C@@H](O[C@H]2C[C@H](N)[C@H](O)[C@H](C)O2)C1)C(=O)c1ccccc1C3=O` [IDARUBICIN], 0.012 µM.
Same read-out and setting: in the case of `CC[C@@]1(O)C(=O)OCc2c1cc1n(c2=O)Cc2cc3ccccc3nc2-1` [CAMPTOTHECIN] it was 0.04 µM.
In the assay with K562 [1], `COc1cc([C@@H]2c3cc4c(cc3[C@@H](O[C@@H]3O[C@@H]5CO[C@@H](C)O[C@H]5[C@H](O)[C@H]3O)[C@H]3COC(=O)[C@H]23)OCO4)cc(OC)c1O` [ETOPOSIDE] came in with an IC50 of 0.32 µM.
In turn, `COc1cc(/C=C/C(=O)CC(=O)/C=C/c2ccc(O)c(OC)c2)ccc1O` [CURCUMIN] yielded an IC50 in the assay with K562 [1] of 6.81 µM. For the same compound, the result (in assay [2]; in the assay on K562 [3]; in assay [4]; in assay [5]; in the assay on K562 [6]; with K562 [7]) was Active.

The record behind these values is ChEMBL document CHEMBL1141448, “Curcumin induces high levels of topoisomerase I- and II-DNA complexes in K562 leukemia cells” (J Nat Prod, 2007).
